Reference: article PMC12756865, “Inhibitory effect of oestradiol on the cardiac KV7.1/KCNE1 channel is species dependent” (Experimental Physiology, 2025)

Legend:
Format in all cases: cell-based
rabbit KV7.1/human KCNE1 = target: T1, rabbit KV7.1/human KCNE1 (Oryctolagus cuniculus; Homo sapiens, UniProt P15382+Q9MYS6); test: two-electrode voltage clamp, Xenopus oocytes, change of Gmax; conditions: 10 µM; inhibition; EC50 fit ambiguous; pH 7.4, about 20 °C; ethanol vehicle
T1 construct: gene KCNQ1; cross-species complex of two intact wild-type subunits (no fusion): rabbit KV7.1 and human KCNE1 cRNAs co-injected in Xenopus laevis oocytes
T1 sequence (Q9MYS6 whole entry, the tested form may be a part): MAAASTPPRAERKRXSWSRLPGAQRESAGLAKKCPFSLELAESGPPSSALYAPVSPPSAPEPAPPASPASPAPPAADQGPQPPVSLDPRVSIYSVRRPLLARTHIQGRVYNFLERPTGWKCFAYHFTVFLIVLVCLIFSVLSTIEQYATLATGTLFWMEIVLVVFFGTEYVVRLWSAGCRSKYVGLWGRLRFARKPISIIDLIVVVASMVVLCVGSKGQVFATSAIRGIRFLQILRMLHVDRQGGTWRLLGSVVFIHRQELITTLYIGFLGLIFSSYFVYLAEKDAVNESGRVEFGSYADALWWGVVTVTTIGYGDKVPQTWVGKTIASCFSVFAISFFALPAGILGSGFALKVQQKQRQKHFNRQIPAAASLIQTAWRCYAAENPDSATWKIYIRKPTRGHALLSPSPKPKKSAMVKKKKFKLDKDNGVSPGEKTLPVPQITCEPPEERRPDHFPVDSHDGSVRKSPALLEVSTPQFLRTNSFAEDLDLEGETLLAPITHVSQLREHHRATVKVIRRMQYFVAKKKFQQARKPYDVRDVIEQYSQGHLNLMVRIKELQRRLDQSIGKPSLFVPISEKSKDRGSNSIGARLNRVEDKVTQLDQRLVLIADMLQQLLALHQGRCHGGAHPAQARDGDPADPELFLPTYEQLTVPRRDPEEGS
From the text: two-electrode voltage clamp, Xenopus oocytes, change of Gmax on rabbit KV7.1/human KCNE1

[1] = target: T2, human KV7.1/KCNE1 (tested as KV7.1/KCNE1_K69Q) (Homo sapiens, UniProt P15382+P51787, P15382:K69Q); test: two-electrode voltage clamp, Xenopus oocytes, reduction of Gmax
T2 construct: gene KCNQ1; KV7.1 and KCNE1 cRNAs co-injected in Xenopus laevis oocytes; KCNE1 in excess; four KV7.1 with one to four KCNE1
T2 sequence (P51787 whole entry): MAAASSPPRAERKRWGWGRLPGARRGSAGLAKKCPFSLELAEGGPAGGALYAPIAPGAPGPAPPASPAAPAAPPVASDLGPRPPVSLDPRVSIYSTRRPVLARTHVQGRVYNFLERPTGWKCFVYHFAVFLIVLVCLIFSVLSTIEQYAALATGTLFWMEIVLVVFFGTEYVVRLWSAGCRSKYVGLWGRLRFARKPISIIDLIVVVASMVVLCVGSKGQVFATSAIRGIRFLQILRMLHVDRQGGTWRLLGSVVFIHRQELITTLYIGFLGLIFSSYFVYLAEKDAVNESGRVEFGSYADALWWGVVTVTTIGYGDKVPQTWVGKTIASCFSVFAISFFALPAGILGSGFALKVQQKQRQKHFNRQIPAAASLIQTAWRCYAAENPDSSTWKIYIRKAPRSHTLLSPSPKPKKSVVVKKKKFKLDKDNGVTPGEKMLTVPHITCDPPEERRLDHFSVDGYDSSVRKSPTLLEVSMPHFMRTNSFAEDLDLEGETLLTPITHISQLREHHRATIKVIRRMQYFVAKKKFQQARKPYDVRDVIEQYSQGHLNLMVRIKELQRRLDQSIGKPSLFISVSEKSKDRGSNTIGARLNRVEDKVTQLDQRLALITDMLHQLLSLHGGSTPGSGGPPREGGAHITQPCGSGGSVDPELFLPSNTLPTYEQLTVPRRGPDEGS

human KV7.1/rabbit KCNE1 = target: T3, human KV7.1/rabbit KCNE1 (Homo sapiens; Oryctolagus cuniculus, UniProt P51787+Q28705); test: two-electrode voltage clamp, Xenopus oocytes, change of Gmax; conditions: 10 µM; inhibition; EC50 fit ambiguous; pH 7.4, about 20 °C; ethanol vehicle
T3 construct: gene KCNQ1; cross-species complex of two intact wild-type subunits (no fusion): human KV7.1 and rabbit KCNE1 cRNAs co-injected in Xenopus laevis oocytes
T3 sequence (P51787 whole entry, the tested form may be a part): as the sequence (P51787 whole entry) above
T3 sequence (Q28705 whole entry, the tested form may be a part): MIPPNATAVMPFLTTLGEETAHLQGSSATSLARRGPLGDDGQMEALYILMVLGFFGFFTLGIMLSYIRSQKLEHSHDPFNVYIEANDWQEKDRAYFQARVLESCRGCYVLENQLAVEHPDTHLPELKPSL
From the text: two-electrode voltage clamp, Xenopus oocytes, change of Gmax on human KV7.1/rabbit KCNE1

guinea pig KV7.1/KCNE1 = target: T4, guinea pig KV7.1/KCNE1 (Cavia porcellus, UniProt A6Y9U2+Q60409); test: as above; conditions: 3 µM; inhibition; EC50 fit ambiguous; pH 7.4, about 20 °C; ethanol vehicle
T4 construct: gene KCNQ1; wild-type KV7.1 and KCNE1 cRNAs co-injected in Xenopus laevis oocytes; KCNE1 in excess; four KV7.1 with one to four KCNE1
From the text: two-electrode voltage clamp, Xenopus oocytes, change of Gmax on guinea pig KV7.1/KCNE1

rabbit KV7.1/KCNE1 = target: T5, rabbit KV7.1/KCNE1 (Oryctolagus cuniculus, UniProt Q28705+Q9MYS6); test: two-electrode voltage clamp, Xenopus oocytes, reduction of Gmax
T5 construct: gene KCNQ1; wild-type KV7.1 and KCNE1 cRNAs co-injected in Xenopus laevis oocytes; KCNE1 in excess; four KV7.1 with one to four KCNE1
T5 sequence (Q9MYS6 whole entry): as the sequence (Q9MYS6 whole entry, the tested form may be a part) above
T5 sequence (Q28705 whole entry): as the sequence (Q28705 whole entry, the tested form may be a part) above

In the case of C[C@]12CC[C@@H]3c4ccc(O)cc4CC[C@H]3[C@@H]1CC[C@@H]2O [17β‐E2], the ΔG max (rabbit KV7.1/human KCNE1) is reported as −91.9 ± 3.0 (SEM) %, the EC50 [1] is reported as 2900 nM and the ΔG max (human KV7.1/rabbit KCNE1) is reported as −77.8 ± 6.2 (SEM) %. For the same molecule, the ΔG max (guinea pig KV7.1/KCNE1) was −37.8 ± 3.7 (SEM) % and the EC50 (rabbit KV7.1/KCNE1) was 230 nM.
